# Experimental data taken from US20180305408A1, “COMPOUNDS FOR INDUCING TISSUE FORMATION AND USES THEREOF” (HISTIDE AG, priority 2015, published 2018).
# No end group written: not given here.
# Tested on: Human epithelial cells
# Assay: Wound healing scratch test, collective cell migration
# Type: cell-based
# Conditions: after 18 hours of culture
# Protocol: Human epithelial cells were cultured with or without GFR-binding compounds as defined herein (SEQ ID NO: 28). A usual scratch test was applied (Nat Protoc 2: 329-333) on a monolayer of these epithelial cells in culture (FIG. 12a). An increase in the cell migration velocity for cells cultured with peptides was observed after 18 hours of culture. The cells migrated collectively and the communication between cells was maintained (FIG. 12b). In fact, the injury has been closed rapidly for the cells cultured with GFR-binding compounds as defined herein.
substance,measurement,value
"SEQ ID NO: 28: GFR-binding compound tested for wound healing; sequence not in this part (RPTQVQLRPVQVRKIEYVRKKPKLKKATV; also: cyclic, ring type not given here)",cell migration velocity,increase
